Results on seven compounds are retold here after patent US11731977B2, “SGC stimulators” (Cyclerion Therapeutics, Inc., priority 2016, dated 2023).

In data set [1] the test system is cGMP in rat primary neurons. In words: cGMP neuronal cell-based assay (Example 3). Particulars: Primary neuron; rat primary hippocampal neurons; 30 μM DETA-NO; cGMP by LC-MS/MS; 50% of high control (10 μM Compound Y); read-out: Abs EC50. As for the experimental part:
Rat primary neurons were isolated from fetuses of 18-day pregnant Sprague-Dawley females. The fetuses were collected in Hanks' balanced salt solution (HBSS) and brains were rapidly removed. The cerebral hippocampi were isolated and mechanically fragmented. Further tissue digestion was performed with 0.25% (wt/vol) trypsin solution in HBSS without Ca2+ and Mg2+ for 15 min at 37° C. After trypsination, cells were washed and resuspended in neurobasal medium supplemented with 0.5 mM L-glutamine, 12.5 uM glutamic acid, 2% B-27 and 100 U/mL penicillin, and 100 μg/mL streptomycin. Cells were plated at a density of 4×10^4 cells/well in a poly-D-lysine coated 384-well flat clear-bottom plate (Corning Cat No 354662). Cells were incubated 6-7 days at 37° C. in a humidified chamber with 5% CO2. Media was removed and cells were washed 1× with HBSS containing Ca2+ and Mg2+, and replaced with 40 uL HBSS containing 0.5 mM IBMX, and incubated for 15 minutes at 37° C. 10 uL of a 5× stock of test compounds with diethylenetriamine NONOate (DETA-NO) was added. Final concentration of DETA-NO was 30 μM. Cells were incubated for 20 min at 37° C. Medium was removed, 50 uL of ice-cold 10% acetic acid was added, and incubated for 60 minutes at 4° C. Following centrifugation at 4° C. for 5 minutes at 1000×g to pellet cell debris, the supernatant was aspirated to a clean plate and the samples were analyzed for cGMP content. cGMP concentrations were determined from each sample using LC-MS/MS.
Data were normalized to a high control using the following equation: 100*(Sample−Low Control)/(High Control−Low Control), where the low control is the average of 15 samples treated with 1% DMSO, and the high control is the average of 15 samples treated with 10 μM a known sGC stimulator Compound Y. Data were fit using a 4-parameter fit (log(agonist) vs. response—variable slope) using GraphPad Prism Software v.5. n=2 for all compounds. The Absolute EC50 was interpolated from the curve fit and is defined as the concentration at which a given compound elicits 50% of the high control response. Compounds failing to elicit a minimum response of 50% are reported as >30 μM. For compounds run in duplicate or n higher than 2, the result herein given is the geometric mean of the several results obtained.

Data set [2] in a line: Rat cerebrospinal fluid (CSF) pharmacokinetic properties (Example 4). It is filed as in vivo. As to conditions: male, Sprague-Dawley. As to the method: Protocol PK in rats was determined following oral dosing. For the oral (PO) experiments, a group of 6 male Sprague-Dawley rats with an indwelling catheter placed in the cistema magna were used. The PO group was dosed with 10 mg/kg or 1 mg/kg of a compound formulated as a solution in PEG400. PO doses were administered by oral gavage and delivered to the stomach using a syringe and gavage tube. Following oral dosage administration, the gavage tube was flushed with approximately 0.5 mL of water to ensure complete delivery of the full dose.
Plasma samples were collected as follows: samples of CSF and blood were collected at 1 hour, 2, and optionally at 4 hours post-dosing. CSF samples (0.05 mL) were collected through the intracisternal catheter. Blood samples (0.25 mL) were collected through retro-orbital sampling. These samples were kept on ice until processed for plasma. Blood samples were centrifuged at 3200 rpm for 5 minutes at approximately 5° C. within 1 hour of collection. Plasma was directly transferred to a 96-well plate tube (0.125 mL). Plug caps were placed on the tubes and the tubes frozen at approximately −70° C. and stored until analysis. Plasma was collected and analyzed for the presence of a compound.
Quantitation of Compounds. The compound in question and the internal standard were extracted from plasma and CSF by precipitation. Samples were analyzed using liquid chromatography (LC) with tandem mass spectrometric detection (MS/MS) using electrospray ionization. The standard curve range was from 1 to 1000 ng/mL. Results of the compounds described herein in this assay are illustrated in Table 4a below (10 mg/kg dose) and Tables 4b and 4c below (1 mg/kg).
Kp,uu is defined as the concentration ratio of unbound drug in CSF to unbound drug in plasma. Unbound drug in plasma (or free plasma concentration) is calculated by multiplying the total plasma concentration by the unbound fraction as determined by plasma protein binding. The CSF concentration is then divided by the free plasma concentration to determine the Kp,uu. (See e.g., Di et al., J. Med. Chem., 56, 2-12 (2013))

[3] abbreviates: 10 mg/kg PO, 1 h, unbound CSF/unbound plasma, read-out: Kp,uu (@ 1 h).
Setting [4] is: CSF, 10 mg/kg PO, 1 h, read-out: CSF Conc. (nM @ 1 h).

pEC50: −log10 of the molar value. Like-named read-outs stand apart in the source and are kept apart here. Where only a bound is given, the exact number is not on record here.

For orientation: pEC50 means the negative decadic logarithm of the EC50, by convention in mol/L. Take `Fc1ccccc1Cc1nc(-c2nc(C(F)(F)F)n[nH]2)cn2ccnc12` [Compound I-1, 8-(2-fluorobenzyl)-6-(3-(trifluoromethyl)-1H-1,2,4-triazol-5-yl)imidazo[1,2-a]pyrazine]: the negative-log EC50 (pEC50) in data set [1] is no less than 7.00. For the same compound, the Kp uu at 1 h in data set [2] (setting [3]) stood at 0.9; in data set [2] (CSF / unbound plasma, 1 mg/kg PO, @ 1 h, read-out: Kp,uu), 1. In addition, in data set [2] (CSF / unbound plasma, 1 mg/kg PO, @ 2 h), the Kp uu at 2 h was 1.4. Further, the Kp uu at 4 h in data set [2] (CSF / unbound plasma, 1 mg/kg PO, @ 4 h) is 1.9. The concentration at 1 h was determined as 21 nM in data set [2] (CSF, 1 mg/kg PO, @ 1 h, read-out: CSF Conc.) and 210 nM in data set [2] (setting [4]). Besides, the concentration at 2 h in data set [2] (CSF, 1 mg/kg PO, @ 2 h, read-out: CSF Conc.) was 35 nM. Also, the concentration at 4 h in data set [2] (CSF, 1 mg/kg PO, @ 4 h, read-out: CSF Conc.) came to 39 nM.

Consider `Fc1cccc(Cc2nc(-c3nc(C(F)(F)F)n[nH]3)cn3ccnc23)c1` [Compound I-2, 8-(3-Fluorobenzyl)-6-(3-(trifluoromethyl)-1H-1,2,4-triazol-5-yl)imidazo[1,2-a]pyrazine], for which the pEC50 in data set [1] is no less than 7.00. Further, the Kp uu at 1 h in data set [2] (setting [3]) is 0.9. Also, the concentration at 1 h in data set [2] (setting [4]) stood at 59 nM.

Consider `Fc1cccc(Cc2nc(-c3nc(C(F)F)n[nH]3)cn3ccnc23)c1` [Compound I-3, 6-(3-(Difluoromethyl)-1H-1,2,4-triazol-5-yl)-8-(3-fluorobenzyl)imidazo[1,2-a]pyrazine], for which the negative logarithm of the EC50 (pEC50) in data set [1] is no less than 7.00. Also, the Kp uu at 1 h in data set [2] (setting [3]) was 0.8. For the same compound, the concentration at 1 h in data set [2] (setting [4]) amounted to 6 nM.

As to `Fc1cccc(Cc2nc(-c3nc(C(F)(F)F)n[nH]3)cn3ccnc23)c1F` [Compound I-10, 8-(2,3-Difluorobenzyl)-6-(3-(trifluoromethyl)-1H-1,2,4-triazol-5-yl)imidazo[1,2-a]pyrazine], in data set [1], the pEC50 is no less than 7.00. In addition, the Kp uu at 1 h in data set [2] (setting [3]) was 3.1. Besides, in data set [2] (setting [4]), the concentration at 1 h worked out at 108 nM.

As to `Fc1cccc(Cc2nc(-c3nc(C(F)F)n[nH]3)cn3ccnc23)c1F` [Compound I-11, 8-(2,3-Difluorobenzyl)-6-(3-(difluoromethyl)-1H-1,2,4-triazol-5-yl)imidazo[1,2-a]pyrazine], the pEC50 in data set [1] is no less than 7.00. In addition, the Kp uu at 1 h in data set [2] (setting [3]) worked out at 2.1. Moreover, the concentration at 1 h in data set [2] (setting [4]) was 72 nM.

`Fc1ccccc1Cc1nc(-c2nc(C(F)F)n[nH]2)cn2ccnc12` [Compound I-14, 8-(2-Fluorobenzyl)-6-(3-(difluoromethyl)-1H-1,2,4-triazol-5-yl)imidazo[1,2-a]pyrazine]: the pEC50 in data set [1] was no less than 7.00. Moreover, the Kp uu at 1 h in data set [2] (setting [3]) is 1.7. In addition, in data set [2] (setting [4]), the concentration at 1 h was found to be 284 nM.

As to `Fc1ccccc1Cc1nc(-c2nc(C(F)(F)F)n[nH]2)cn2ncnc12` [Compound I-16, 8-(2-Fluorobenzyl)-6-(3-(trifluoromethyl)-1H-1,2,4-triazol-5-yl)-[1,2,4]triazolo[1,5-a]pyrazine], the pEC50 in data set [1] was no less than 7.00. Besides, the Kp uu at 1 h in data set [2] (setting [3]) is 1.6. The concentration at 1 h in data set [2] (setting [4]) is 272 nM.
